# Source: patent publication US20160060260A1, “BROMODOMAIN INHIBITORS FOR TREATING DISEASE” (Board of Regents, The University of Texas System, priority 2014, published 2016)
# Target: T1, Recombinant human His-tagged Trim24-PHD-bromodomain (Homo sapiens, UniProt O15164)
# T1 construct: Recombinant human His-tagged Trim24-PHD-bromodomain (produced in-house); made in house
# T1 sequence (O15164 824-1006 limits assumed): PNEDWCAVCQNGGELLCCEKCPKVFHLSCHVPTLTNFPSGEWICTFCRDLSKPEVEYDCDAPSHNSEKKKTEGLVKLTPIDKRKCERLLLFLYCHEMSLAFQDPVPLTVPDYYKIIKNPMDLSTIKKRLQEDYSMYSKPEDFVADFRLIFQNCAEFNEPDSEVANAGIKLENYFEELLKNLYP
# Assay: Trim24 AlphaScreen Assay
# Type: binding
# Conditions: 5 nM Trim24 protein, 15 nM biotinylated H3K23ac (1-33aa) peptide
# Outline: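 His-tagged Trim24-PHD-bromodomain, biotinylated H3K23ac (1-33aa) peptide and compound incubated 1 h at room temperature in 50 mM Hepes pH 7.5, 100 mM NaCl, 0.12 mM Triton X-100.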
row,SMILES,IC50 [nM]
1,"CCCOc1cc(OCCCCN2CCC2)cc(Oc2cc3c(cc2NS(=O)(=O)c2ccc(OC)c(OC)c2)n(C)c(=O)n3C)c1 [Example 251, N-(6-{3-[4-(azetidin-1-yl)butoxy]-5-propoxyphenoxy}-1,3-dimethyl-2-oxo-2,3-dihydro-1H-1,3-benzodiazol-5-yl)-3,4-dimethoxybenzene-1-sulfonamide]",1 to 10
2,"Cc1n[nH]c(C)c1S(=O)(=O)Nc1cc2c(cc1Oc1cccc(OCC3CC3)c1)n(C)c(=O)n2C [Example 136, N-(6-(3-(cyclopropylmethoxy)phenoxy)-1,3-dimethyl-2-oxo-2,3-dihydro-1H-benzo[d]imidazol-5-yl)-3,5-dimethyl-1H-pyrazole-4-sulfonamide]",10 to 100
3,"COCCS(=O)(=O)Nc1cc2c(cc1Oc1cccc(OCC(F)(F)F)c1)n(C)c(=O)n2C [Example 89, N-(1,3-dimethyl-2-oxco-6-(3-(2,2,2-trifluoroethoxy)phenoxy)-2,3-dihydro-1H-benzo[d]imidazol-5-yl)-2-methoxyethane-1-sulfonamide]",100 to 1000
4,"Cc1n[nH]cc1S(=O)(=O)Nc1cc2c(cc1Oc1cccc(OCc3ccccc3)c1)n(C)c(=O)n2C [Example 48, N-(6-(3-(benzyloxy)phenoxy)-1,3-dimethyl-2-oxo-2,3-dihydro-1H-benzo[d]imidazol-5-yl)-3-methyl-1H-pyrazole-4-sulfonamide]",100 to 1000
5,"COc1ccccc1S(=O)(=O)Nc1cc2c(cc1Oc1cccc(OCc3ccccc3)c1)n(C)c(=O)n2C [Example 52, N-(6-(3-(benzyloxy)phenoxy)-1,3-dimethyl-2-oxo-2,3-dihydro-1H-benzo[d]imidazol-5-yl)-2-methoxybenzenesulfonamide]",100 to 1000
6,"Cn1c(=O)n(C)c2cc(Oc3cccc(OCc4ccccc4)c3)c(NS(=O)(=O)c3ccccc3Br)cc21 [Example 37, N-(6-(3-(benzyloxy)phenoxy)-1,3-dimethyl-2-oxo-2,3-dihydro-1H-benzo[d]imidazol-5-yl)-2-bromobenzenesulfonamide]",> 1000
7,"CCCOc1cc(OCCCCCCO)cc(Oc2cc3c(cc2NS(=O)(=O)c2cnn(C)c2C)n(C)c(=O)n3C)c1 [Example 178, N-(6-(3-((6-hydroxyhexyl)oxy)-5-propoxyphenoxy)-1,3-dimethyl-2-oxo-2,3-dihydro-1H-benzo[d]imidazol-5-yl)-1,5-dimethyl-1H-pyrazole-4-sulfonamide]",10 to 100
8,"CCn1nccc1S(=O)(=O)Nc1cc2c(cc1Oc1cccc(OCc3ccccc3)c1)n(C)c(=O)n2C [Example 42, N-(6-(3-(benzyloxy)phenoxy)-1,3-dimethyl-2-oxo-2,3-dihydro-1H-benzo[d]imidazol-5-yl)-1-ethyl-1H-pyrazole-5-sulfonamide]",100 to 1000
9,"CCCOc1cc(OCCCCN)cc(Oc2cc3c(cc2NS(=O)(=O)c2cn(C)cn2)n(C)c(=O)n3C)c1 [Example 186, N-(6-(3-(4-aminobutoxy)-5-propoxyphenoxy)-1,3-dimethyl-2-oxo-2,3-dihydro-1H-benzo[d]imidazol-5-yl)-1-methyl-1H-imidazole-4-sulfonamide]",1 to 10
10,"COc1ccc(S(=O)(=O)Nc2cc3c(cc2Oc2ccc(F)c(OCC4CC4)c2)n(C)c(=O)n3C)cc1OC [Example 131, N-(6-(3-(cyclopropylmethoxy)-4-fluorophenoxy)-1,3-dimethyl-2-oxo-2,3-dihydro-1H-benzo[d]imidazol-5-yl)-3,4-dimethoxybenzenesulfonamide]",100 to 1000
11,"CCCOc1cc(OCCCCN(C)C)cc(Oc2cc3c(cc2NS(=O)(=O)c2cnn(C)c2C)n(C)c(=O)n3C)c1 [Example 217, N-(6-(3-(4-(dimethylamino)butoxy)-5-propoxyphenoxy)-1,3-dimethyl-2-oxo-2,3-dihydro-1H-benzo[d]imidazol-5-yl)-1,5-dimethyl-1H-pyrazole-4-sulfonamide]",10 to 100
12,Cn1c(=O)n(C)c2cc(Oc3cccc(OCc4ccccc4)c3)c(NS(=O)(=O)c3ccc(F)cc3)cc21 [Example 15],> 1000
13,"COc1cc(OCC(C)C)cc(Oc2cc3c(cc2NS(=O)(=O)C2CC2)n(C)c(=O)n3C)c1 [Example 69, N-(6-(3-isobutoxy-5-methoxyphenoxy)-1,3-dimethyl-2-oxo-2,3-dihydro-1H-benzo[d]imidazol-5-yl)cyclopropanesulfonamide]",10 to 100
14,"CCCOc1cc(OCCCCN)cc(Oc2cc3c(cc2NS(=O)(=O)c2ccc(OC)c(OC)c2)n(C)c(=O)n3C)c1 [Example 196, N-(6-(3-(4-aminobutoxy)-5-propoxyphenoxy)-1,3-dimethyl-2-oxo-2,3-dihydro-1H-benzo[d]imidazol-5-yl)-3,4-dimethoxybenzenesulfonamide]",1 to 10
15,"CCc1cccc(S(=O)(=O)Nc2cc3c(cc2Oc2cccc(OCc4ccccc4)c2)n(C)c(=O)n3C)c1 [Example 33, N-(6-(3-(benzyloxy)phenoxy)-1,3-dimethyl-2-oxo-2,3-dihydro-1H-benzo[d]imidazol-5-yl)-3-ethylbenzenesulfonamide]",> 1000
16,"CC(C)COc1cccc(Oc2cc3c(cc2NS(=O)(=O)c2cnn(C)c2)n(C)c(=O)n3C)c1 [Example 60, N-(6-(3-isobutoxyphenoxy)-1,3-dimethyl-2-oxo-2,3-dihydro-1H-benzo[d]imidazol-5-yl)-1-methyl-1H-pyrazole-4-sulfonamide]",10 to 100
17,"CC(C)COc1ccc(S(=O)(=O)Nc2cc3c(cc2Oc2cccc(OCc4ccccc4)c2)n(C)c(=O)n3C)cc1 [Example 16, N-(6-(3-(benzyloxy)phenoxy)-1,3-dimethyl-2-oxo-2,3-dihydro-1H-benzo[d]imidazol-5-yl)-4-isobutoxybenzenesulfonamide]",> 1000
18,"CCCOc1cc(OCCCOC)cc(Oc2cc3c(cc2NS(=O)(=O)c2cnn(C)c2)n(C)c(=O)n3C)c1 [Example 153, N-(6-(3-(3-methoxypropoxy)-5-propoxyphenoxy)-1,3-dimethyl-2-oxo-2,3-dihydro-1H-benzo[d]imidazol-5-yl)-1-methyl-1H-pyrazole-4-sulfonamide]",10 to 100
19,"Cc1cc(S(=O)(=O)Nc2cc3c(cc2Oc2cccc(OCc4ccccc4)c2)n(C)c(=O)n3C)n(C)n1 [Example 79, N-(6-(3-(benzyloxy)phenoxy)-1,3-dimethyl-2-oxo-2,3-dihydro-1H-benzo[d]imidazol-5-yl)-1,3-dimethyl-1H-pyrazole-5-sulfonamide]",> 1000

# Further lines, results first:
row,IC50 [nM],SMILES
1,100 to 1000,"Cn1cnc(S(=O)(=O)Nc2cc3c(cc2Oc2cccc(OCc4cccnc4)c2)n(C)c(=O)n3C)c1 [Example 39, N-(1,3-dimethyl-2-oxo-6-(3-(pyridin-3-ylmethoxy)phenoxy)-2,3-dihydro-1H-benzo[d]imidazol-5-yl)-1-methyl-1H-imidazole-4-sulfonamide]"
2,10 to 100,"CCCOc1cc(OCCCC#N)cc(Oc2cc3c(cc2NS(=O)(=O)c2cn(C)c(C)n2)n(C)c(=O)n3C)c1 [Example 124, N-(6-(3-(3-cyanopropoxy)-5-propoxyphenoxy)-1,3-dimethyl-2-oxo-2,3-dihydro-1H-benzo[d]imidazol-5-yl)-1,2-dimethyl-1H-imidazole-4-sulfonamide]"
3,> 1000,"CCCOc1cc(Oc2cc3c(cc2NS(=O)(=O)c2cn(C)cn2)n(C)c(=O)n3C)ccc1OC [Example 114, N-(6-(4-methoxy-5-propoxyphenoxy)-1,3-dimethyl-2-oxo-2,3-dihydro-1H-benzo[d]imidazol-5-yl)-1-methyl-1H-imidazole-4-sulfonamide]"
4,10 to 100,"CCCOc1cc(C#N)cc(Oc2cc3c(cc2NS(=O)(=O)c2cn(C)cn2)n(C)c(=O)n3C)c1 [Example 108, N-(6-(3-cyano-5-propoxyphenoxy)-1,3-dimethyl-2-oxo-2,3-dihydro-1H-benzo[d]imidazol-5-yl)-1-methyl-1H-imidazole-4-sulfonamide]"
5,10 to 100,"CCCOc1ccc(F)c(Oc2cc3c(cc2NS(=O)(=O)c2cccnc2)n(C)c(=O)n3C)c1 [Example 135, N-(6-(2-fluoro-5-propoxyphenoxy)-1,3-dimethyl-2-oxo-2,3-dihydro-1H-benzo[d]imidazol-5-yl)pyridine-3-sulfonamide]"
6,> 1000,"CCCOc1ccc(F)c(Oc2cc3c(cc2NS(=O)(=O)c2cn(C)cn2)n(C)c(=O)n3C)c1 [Example 104, N-(6-(2-fluoro-5-propoxyphenoxy)-1,3-dimethyl-2-oxo-2,3-dihydro-1H-benzo[d]imidazol-5-yl)-1-methyl-1H-imidazole-4-sulfonamide]"
7,> 1000,"Cn1cnc(S(=O)(=O)Nc2cc3c(cc2Oc2cccc(OCc4cccc(C#N)c4)c2)n(C)c(=O)n3C)c1 [Example 40, N-(6-(3-((3-cyanobenzyl)oxy)phenoxy)-1,3-dimethyl-2-oxo-2,3-dihydro-1H-benzo[d]imidazol-5-yl)-1-methyl-1H-imidazole-4-sulfonamide]"
8,100 to 1000,"Cn1cnc(S(=O)(=O)Nc2cc3c(cc2Oc2cccc(OCC(C)(O)CNCCN)c2)n(C)c(=O)n3C)c1 (stereo not drawn) [Example 237, N-[6-(3-{3-[(2-aminoethyl)amino]-2-hydroxy-2-methylpropoxy}phenoxy)-1,3-dimethyl-2-oxo-2,3-dihydro-1H-1,3-benzodiazol-5-yl]-1-methyl-1H-imidazole-4-sulfonamide]"
9,10 to 100,"CCCOc1ccc(F)c(Oc2cc3c(cc2NS(=O)(=O)c2ccc(OC)c(OC)c2)n(C)c(=O)n3C)c1 [Example 134, N-(6-(2-fluoro-5-propoxyphenoxy)-1,3-dimethyl-2-oxo-2,3-dihydro-1H-benzo[d]imidazol-5-yl)-3,4-dimethoxybenzenesulfonamide]"
10,100 to 1000,Cn1cnc(S(=O)(=O)Nc2cc3c(cc2Oc2cccc(OCCCCC(=O)O)c2)n(C)c(=O)n3C)c1 [Example 228]
11,100 to 1000,"COc1cccc(Oc2cc3c(cc2NS(=O)(=O)c2cn(C)cn2)n(C)c(=O)n3C)c1 [Example 63, N-(6-(3-methoxyphenoxy)-1,3-dimethyl-2-oxo-2,3-dihydro-1H-benzo[d]imidazol-5-yl)-1-methyl-1H-imidazole-4-sulfonamide]"
